{
  "source": "patent US20090004287A1",
  "about": "“Disinfectant formulations containing quaternary ammonium compounds and hydrogen peroxide” (priority 2007, published 2009)",
  "key": {"[1]": {"assay": "Hydrogen peroxide stability in the presence of didecyldimethylammonium bicarbonate/carbonate", "assay_type": "physicochemical", "from_the_text": "Hydrogen Peroxide Stability in the Presence of Didecyldimethylammonium Bicarbonate/-Carbonate"}, "P. aeruginosa": {"test_system": "P. aeruginosa", "assay": "Efficacy against P. aeruginosa dried on microplate wells (growth/no growth, 4 replicates)", "assay_type": "cell-based", "settings": "5% fetal bovine serum; for Positive cells out of a total of 4 after 5 min: contact time 5 min, diluted in water of 400 ppm hardness, positive = ineffective disinfection; for Positive cells out of a total of 4 after 10 min: contact time 10 min; for Positive cells out of a total of 4 after 10 min / Positive cells out of a total of 4 after 11 min / Positive cells out of a total of 4 after 13 min / Positive cells out of a total of 4 after 16 min / Positive cells out of a total of 4 after 20 min / Positive cells out of a total of 4 after 21 min / Positive cells out of a total of 4 after 25 min: water of 400 ppm hardness; for Positive cells out of a total of 4 after 11 min: contact time 11 min; for Positive cells out of a total of 4 after 13 min: contact time 13 min; for Positive cells out of a total of 4 after 16 min: contact time 16 min; for Positive cells out of a total of 4 after 20 min: contact time 20 min; for Positive cells out of a total of 4 after 21 min: contact time 21 min; for Positive cells out of a total of 4 after 25 min: contact time 25 min", "procedure": "All solutions were diluted in water of 400 ppm hardness and all concentrations were expressed in ppm. Each of the solutions was tested in 4 replicates as described below. The numbers in Table 2 below indicate the number of “positive” cells or ineffective disinfection of 4 replicates. Various contact times noted on the tables were evaluated.\nFlat bottom microplate wells were inoculated with 15 μL each of a suspension of 10% P. aeruginosa+5% fetal bovine serum in a saline solution, 4.5×10^7 cfu/mL using a Quadra Tower 400 Series High Throughput apparatus (Tomtec Inc., Hamden, Conn.). The plates were dried with cover open for 40 minutes at 36° C. Then, 120 μL of each test substance was transferred from the deep-well block to the test wells. The test organisms were exposed to the test substance for different contact times, after which the substances were removed with the Quadra and 150 μL of modified AOAC Letheen neutralizer+0.5% Na thiosulfate/growth broth was added to each well. The microplates were incubated at 36° C. for 24 hours and scored for growth/no growth."}},
  "data": [
    {"compound": "OO", "note": "[3.0% H2O2, hydrogen peroxide]", "values": [
      {"measurement": "% Hydrogen Peroxide Concentration at Time/Temperature: 1 Month/40° C.", "setting": "[1]; 1 month, 40° C.", "result": 1.82, "unit": "%"},
      {"measurement": "% Hydrogen Peroxide Concentration at Time/Temperature: 1 Month/RT", "setting": "[1]; 1 month, room temperature", "result": 2.85, "unit": "%"},
      {"measurement": "% Hydrogen Peroxide Concentration at Time/Temperature: 1 Week/40° C.", "setting": "[1]; 1 week, 40° C.", "result": 2.74, "unit": "%"},
      {"measurement": "% Hydrogen Peroxide Concentration at Time/Temperature: 1 Week/RT", "setting": "[1]; 1 week, room temperature", "result": 2.99, "unit": "%"},
      {"measurement": "% Hydrogen Peroxide Concentration at Time/Temperature: Initial", "setting": "[1]; Initial, by weight, analytical accuracy ±3% relative", "result": 3.11, "unit": "%"}
    ]},
    {"compound": "OO", "note": "[H2O2 2,000 ppm, hydrogen peroxide]", "values": [
      {"measurement": "Positive cells out of a total of 4 after 5 min", "setting": "P. aeruginosa", "result": 0},
      {"measurement": "Positive cells out of a total of 4 after 10 min", "setting": "P. aeruginosa", "result": 0},
      {"measurement": "Positive cells out of a total of 4 after 11 min", "setting": "P. aeruginosa", "result": 0},
      {"measurement": "Positive cells out of a total of 4 after 13 min", "setting": "P. aeruginosa", "result": 0},
      {"measurement": "Positive cells out of a total of 4 after 16 min", "setting": "P. aeruginosa", "result": 0},
      {"measurement": "Positive cells out of a total of 4 after 20 min", "setting": "P. aeruginosa", "result": 0},
      {"measurement": "Positive cells out of a total of 4 after 21 min", "setting": "P. aeruginosa", "result": 0},
      {"measurement": "Positive cells out of a total of 4 after 25 min", "setting": "P. aeruginosa", "result": 0}
    ]},
    {"compound": "OO", "note": "[H2O2 600 ppm, hydrogen peroxide]", "values": [
      {"measurement": "Positive cells out of a total of 4 after 5 min", "setting": "P. aeruginosa", "result": 4},
      {"measurement": "Positive cells out of a total of 4 after 10 min", "setting": "P. aeruginosa", "result": 4},
      {"measurement": "Positive cells out of a total of 4 after 11 min", "setting": "P. aeruginosa", "result": 2},
      {"measurement": "Positive cells out of a total of 4 after 13 min", "setting": "P. aeruginosa", "result": 0},
      {"measurement": "Positive cells out of a total of 4 after 16 min", "setting": "P. aeruginosa", "result": 0},
      {"measurement": "Positive cells out of a total of 4 after 20 min", "setting": "P. aeruginosa", "result": 0},
      {"measurement": "Positive cells out of a total of 4 after 21 min", "setting": "P. aeruginosa", "result": 0},
      {"measurement": "Positive cells out of a total of 4 after 25 min", "setting": "P. aeruginosa", "result": 0}
    ]},
    {"compound": "didecyldimethylammonium carbonate/bicarbonate [Quat 500 ppm]", "values": [
      {"measurement": "Positive cells out of a total of 4 after 5 min", "setting": "P. aeruginosa", "result": 4},
      {"measurement": "Positive cells out of a total of 4 after 10 min", "setting": "P. aeruginosa", "result": 4},
      {"measurement": "Positive cells out of a total of 4 after 11 min", "setting": "P. aeruginosa", "result": 4},
      {"measurement": "Positive cells out of a total of 4 after 13 min", "setting": "P. aeruginosa", "result": 4},
      {"measurement": "Positive cells out of a total of 4 after 16 min", "setting": "P. aeruginosa", "result": 1},
      {"measurement": "Positive cells out of a total of 4 after 20 min", "setting": "P. aeruginosa", "result": 0},
      {"measurement": "Positive cells out of a total of 4 after 21 min", "setting": "P. aeruginosa", "result": 1},
      {"measurement": "Positive cells out of a total of 4 after 25 min", "setting": "P. aeruginosa", "result": 0}
    ]}
  ]
}
